How the values were obtained:
[1] = test system: Human primary foreskin fibroblasts (BJ fibroblasts); assay: Innate immune response transcripts in BJ fibroblasts, single transfection (qPCR); type: cell-based; settings: 250 ng, 18 hours
From the text: Control samples of poly I:C.

[2] = test system: TNF-alpha; assay: Chemical modification ranges, modified RNA transfected in PBMC, TNF-alpha ELISA; type: cell-based, human
Protocol: (§1) The supernatant was harvested and run by ELISA 22 hours after transfection to determine the protein expression.

[3] = test system: IFN-alpha; assay: Chemical modification ranges, modified RNA transfected in PBMC, IFN-alpha ELISA; type: cell-based, human
Protocol: 960 ng of G-CSF mRNA modified with 5-methylcytosine (5mC) and pseudouridine (pseudoU) or unmodified G-CSF mRNA was transfected with 0.8 uL of Lipofectamine 2000 into peripheral blood mononuclear cells (PBMC) from three normal blood donors (D1, D2, D3). […] The supernatant was harvested and run by ELISA 22 hours after transfection to determine the protein expression. The expression of IFN-alpha and TNF-alpha may be a secondary effect from the transfection of the G-CSF mRNA.

[4] = test system: peripheral blood mononuclear cells (PBMC); assay: In vitro PBMC study, percent modification: IFN-alpha and TNF-alpha by ELISA, PC ratio; type: cell-based, human
Protocol: as §1

[5] = test system: HEK293 cells; assay: In vitro expression of VEGF modified mRNA (ELISA); type: cell-based

poly I:C [P(I)P(C)]
AIM2 transcript level [1]: 0.100 fold-induction relative to HPRT | IFIT-1 transcript level [1]: 71.914 fold-induction relative to HPRT | IFNa transcript level [1]: 0.063 fold-induction relative to HPRT | IFNb transcript level [1]: 1.523 fold-induction relative to HPRT | IL6 transcript level [1]: 2.8 fold-induction relative to HPRT | OAS-1 transcript level [1]: 8.628 fold-induction relative to HPRT | PKR transcript level [1]: 10.326 fold-induction relative to HPRT | RIG-I transcript level [1]: 30.0 fold-induction relative to HPRT | TNFa transcript level [1]: 0.264 fold-induction relative to HPRT | TNF-alpha Expression ([2]; PBMC donor D1): 61.2 pg/mL | TNF-alpha Expression ([2]; PBMC donor D2): 4.4 pg/mL | TNF-alpha Expression ([2]; PBMC donor D3): 69.1 pg/mL | IFN-alpha Expression ([3]; PBMC donor D1): 1498.1 pg/mL | IFN-alpha Expression ([3]; PBMC donor D2): 216.8 pg/mL | IFN-alpha Expression ([3]; PBMC donor D3): 238.8 pg/mL | IFN-alpha Expression ([4]; donor D1, 22 hours): 130.8 pg/mL | TNF-alpha Expression ([4]; donor D1, 22 hours): 765.8 pg/mL | IFN-alpha Expression ([4]; donor D2, 22 hours): 297.1 pg/mL | TNF-alpha Expression ([4]; donor D2, 22 hours): 2362.7 pg/mL | IFN-alpha Expression ([4]; donor D3, 22 hours): 585.2 pg/mL | TNF-alpha Expression ([4]; donor D3, 22 hours): 420.4 pg/mL

B1: VEGF-A: modified mRNA VEGF-A SEQ ID NO 19, Cap1, fully modified with 5-methylcytosine and pseudouridine, complexed with Lipofectamine2000 (nucleic acid, listed as Homo sapiens)
chain: GGGAAAUAAGAGAGAAAAGAAGAGUAAGAAGAAAUAUAAGAGCCACCAUGAACUUUCUCUUGUCAUGGGUGCACUGGAGCCUUGCGCUGCUGCUGUAUCUUCAUCACGCUAAGUGGAGCCAGGCCGCACCCAUGGCGGAGGGUGGCGGACAGAAUCACCACGAAGUAGUCAAAUUCAUGGACGUGUACCAGAGGUCGUAUUGCCAUCCGAUUGAAACUCUUGUGGAUAUCUUUCAAGAAUACCCCGAUGAAAUCGAGUACAUUUUCAAACCGUCGUGUGUCCCUCUCAUGAGGUGCGGGGGAUGCUGCAAUGAUGAAGGGUUGGAGUGUGUCCCCACGGAGGAGUCGAAUAUCACAAUGCAAAUCAUGCGCAUCAAACCACAUCAGGGUCAGCAUAUUGGAGAGAUGUCCUUUCUCCAGCACAACAAAUGUGAGUGUAGACCGAAGAAGGACCGAGCCCGACAGGAAAACCCAUGCGGACCGUGCUCCGAGCGGCGCAAACACUUGUUCGUACAAGACCCCCAGACAUGCAAGUGCUCAUGUAAGAAUACCGAUUCGCGGUGUAAGGCGAGACAGCUGGAAUUGAACGAGCGCACGUGUAGGUGCGACAAGCCUAGACGGUGAGCUGCCUUCUGCGGGGCUUGCCUUCUGGCCAUGCCCUUCUUCUCUCCCUUGCACCUGUACCUCUUGGUCUUUGAAUAAAGCCUGAGUAGGAAG
modifications: Cap1, polyA tail, 5mC/pseudoU, Lipofectamine2000 complex
Protein ([5]; 2 pg transfected): 0 pg/mL | Protein ([5]; 10 pg transfected): 0 pg/mL | Protein ([5]; 39 pg transfected): 0 pg/mL | Protein ([5]; 610 fg transfected): 0 pg/mL
